According to US20250215071A1, “Novel Mcl-1 inhibitor and combination of Mcl-1 and a BH3 mimetic, such as a Bcl-2 inhibitor” (NETRIS PHARMA, priority 2022, published 2025):

Test system: Mcl-1
Experiment: Mcl-1 protein levels by western blot in HeLa UNC5B cells
Type: cell-based, Human
Settings: 2 μg/mL Dox
Protocol: FIG. 4. UNC5B triggers proteasomal degradation of Mcl-1. (A,B): UNC5B-induced apoptosis requires proteasome activity. Stable Hela cells inducible for UNC5B (HeLa UNC5B) were treated with doxycycline (Dox) at 2 μg/mL, in combination with the indicated doses of the proteasome inhibitors MG132 and bortezomib (BTZ). 18 hours after treatment, apoptosis was measured by DNA fragmentation (A) and caspase-3 activity (B) (n=3-4, **** p<0.0001, ordinary two-way ANOVA with Tukey's multiple comparisons test). Values are given as means±SEM Treatment with proteasome inhibitors was sufficient to strongly reduce apoptosis induction upon UNC5B over-expression. (C): UNC5B triggers Mcl-1 degradation. HeLa UNC5B cells were treated with 2 μg/mL of Dox, in combination with bortezomib (BTZ, 1 μM) and the pan-caspase inhibitor Q-VD-OPh (QVD, 10 µM) inhibitors. 16 hours after treatment, cells were lysed by scraping and sonication in SDS-containing buffer. Protein levels of Mcl-1, Bcl-2 and Bcl-XL, as well as of UNC5B and B-actin, used as housekeeping gene, were evaluated by western blot. […] UNC5B over-expression specifically promoted Mcl-1 protein decrease. […] (D): Mcl-1 degradation induced by UNC5B requires COMMD2/CRL3 complex. HeLa UNC5B cells were transfected with scramble (siCTRL), COMMD2 (siCOMMD2) or RBX1 (siRBX1) siRNAs. […] Protein levels of Mcl-1, UNC5B and Ku80, used as housekeeping protein, were evaluated by western blot. […] Stable HeLa UNC5B cells, constitutively expressing Mcl-1 or empty vector, were treated with doxycycline and apoptosis was evaluated 18 hours later by DNA fragmentation (n=3, ^nsp>0.05, ordinary two-way ANOVA with Sidak's multiple comparisons test). […] Stable HeLa UNC5B cells, constitutively expressing Mcl-1, Bcl-2 or Bcl-XL were treated with Dox and protein levels were evaluated as described in (C). […] 18 hours later, protein levels of Mcl-1, UNC5B and β-actin, used as housekeeping gene, were evaluated by western blot. […] Cells were harvested at the indicated times after CHX treatment, and protein levels were assessed by western blot. […]

Compound: CC(C)C[C@H](NC(=O)[C@H](Cc1ccccc1)NC(=O)c1cnccn1)B(O)O [bortezomib]
- degradation of ectopically-expressed Mcl-1 (HeLa UNC5B cells constitutively expressing Mcl-1, 18 hours): restrained the degradation
- Mcl-1 protein levels / degradation triggered by UNC5B (endogenous Mcl-1, BTZ 1 μM, QVD 10 µM, 16 hours): increased but similar Mcl-1 protein levels in both untreated and doxycycline-treated cells
